One data set concerns the target T1, FGFR4 (Homo sapiens, UniProt P22455).
T1 construct: purchased DiscoveRx Corporation
The data set is described as follows: Enzyme binding assay (KINOMEscan) FGFR4. The note with it: pKd = -log Kd (M), read-out: FGFR4_pKd (converted). As to the method:
(§1) Enzyme Binding Assays (KINOMEscan®)
(§2) Kinase enzyme binding affinities of compounds disclosed herein were determined using the KINOMEscan® technology performed by DiscoveRx Corporation, San Diego, Calif., USA (www.kinomescan.com).

The next data set deals with T2, VEGFR2 (Homo sapiens, UniProt P35968).
T2 construct: purchased DiscoveRx Corporation
Description: Enzyme binding assay (KINOMEscan) VEGFR2. The note with it: pKd = -log Kd (M), read-out: VEGFR2_pKd (converted). How it is done:
as §1, §2

A further data set addresses T3, FGFR3 (Homo sapiens, UniProt P22607).
T3 construct: purchased DiscoveRx Corporation
Description: Enzyme binding assay (KINOMEscan) FGFR3. The note with it: pKd = -log Kd (M), read-out: FGFR3_pKd (converted). As to the method:
as §1, §2

The target of a further data set is T4, FGFR2 (Homo sapiens, UniProt P21802).
T4 construct: purchased DiscoveRx Corporation
The data set is described as follows: Enzyme binding assay (KINOMEscan) FGFR2. The note with it: pKd = -log Kd (M), read-out: FGFR2_pKd (converted). How it is done:
as §1, §2

For a further data set, the target named is T5, FGFR1 (Homo sapiens, UniProt P11362).
T5 construct: purchased DiscoveRx Corporation
Description: Enzyme binding assay (KINOMEscan) FGFR1. The note with it: FGFR1_pKd, pKd = -log Kd (M). How it is done: as §1, §2

The record followed here is patent US9493426B2, “Quinazolinone derivatives useful as FGFR kinase modulators” (priority 2013, dated 2016).

T1 sequence (P22455 22-802): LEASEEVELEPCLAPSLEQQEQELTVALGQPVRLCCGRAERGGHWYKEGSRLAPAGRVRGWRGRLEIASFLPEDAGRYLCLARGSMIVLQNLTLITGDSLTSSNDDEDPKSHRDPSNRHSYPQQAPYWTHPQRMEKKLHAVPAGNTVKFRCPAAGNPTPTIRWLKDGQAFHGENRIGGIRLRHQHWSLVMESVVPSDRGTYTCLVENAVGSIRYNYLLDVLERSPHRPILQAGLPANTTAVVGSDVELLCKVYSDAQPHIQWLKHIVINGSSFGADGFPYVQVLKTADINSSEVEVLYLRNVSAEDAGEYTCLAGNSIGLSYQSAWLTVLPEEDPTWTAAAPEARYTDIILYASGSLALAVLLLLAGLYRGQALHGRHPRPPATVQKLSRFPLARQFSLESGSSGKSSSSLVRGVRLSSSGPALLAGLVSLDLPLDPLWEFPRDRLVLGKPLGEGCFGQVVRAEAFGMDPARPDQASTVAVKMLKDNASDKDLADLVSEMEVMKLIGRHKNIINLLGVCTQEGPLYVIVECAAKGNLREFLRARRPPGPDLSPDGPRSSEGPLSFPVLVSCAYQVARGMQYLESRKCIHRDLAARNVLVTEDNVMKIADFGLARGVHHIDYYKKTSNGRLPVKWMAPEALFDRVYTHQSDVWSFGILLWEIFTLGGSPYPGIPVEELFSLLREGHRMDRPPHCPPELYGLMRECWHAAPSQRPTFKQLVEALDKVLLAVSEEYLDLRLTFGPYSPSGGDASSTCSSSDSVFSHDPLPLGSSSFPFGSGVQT
T2 sequence (P35968 20-1356): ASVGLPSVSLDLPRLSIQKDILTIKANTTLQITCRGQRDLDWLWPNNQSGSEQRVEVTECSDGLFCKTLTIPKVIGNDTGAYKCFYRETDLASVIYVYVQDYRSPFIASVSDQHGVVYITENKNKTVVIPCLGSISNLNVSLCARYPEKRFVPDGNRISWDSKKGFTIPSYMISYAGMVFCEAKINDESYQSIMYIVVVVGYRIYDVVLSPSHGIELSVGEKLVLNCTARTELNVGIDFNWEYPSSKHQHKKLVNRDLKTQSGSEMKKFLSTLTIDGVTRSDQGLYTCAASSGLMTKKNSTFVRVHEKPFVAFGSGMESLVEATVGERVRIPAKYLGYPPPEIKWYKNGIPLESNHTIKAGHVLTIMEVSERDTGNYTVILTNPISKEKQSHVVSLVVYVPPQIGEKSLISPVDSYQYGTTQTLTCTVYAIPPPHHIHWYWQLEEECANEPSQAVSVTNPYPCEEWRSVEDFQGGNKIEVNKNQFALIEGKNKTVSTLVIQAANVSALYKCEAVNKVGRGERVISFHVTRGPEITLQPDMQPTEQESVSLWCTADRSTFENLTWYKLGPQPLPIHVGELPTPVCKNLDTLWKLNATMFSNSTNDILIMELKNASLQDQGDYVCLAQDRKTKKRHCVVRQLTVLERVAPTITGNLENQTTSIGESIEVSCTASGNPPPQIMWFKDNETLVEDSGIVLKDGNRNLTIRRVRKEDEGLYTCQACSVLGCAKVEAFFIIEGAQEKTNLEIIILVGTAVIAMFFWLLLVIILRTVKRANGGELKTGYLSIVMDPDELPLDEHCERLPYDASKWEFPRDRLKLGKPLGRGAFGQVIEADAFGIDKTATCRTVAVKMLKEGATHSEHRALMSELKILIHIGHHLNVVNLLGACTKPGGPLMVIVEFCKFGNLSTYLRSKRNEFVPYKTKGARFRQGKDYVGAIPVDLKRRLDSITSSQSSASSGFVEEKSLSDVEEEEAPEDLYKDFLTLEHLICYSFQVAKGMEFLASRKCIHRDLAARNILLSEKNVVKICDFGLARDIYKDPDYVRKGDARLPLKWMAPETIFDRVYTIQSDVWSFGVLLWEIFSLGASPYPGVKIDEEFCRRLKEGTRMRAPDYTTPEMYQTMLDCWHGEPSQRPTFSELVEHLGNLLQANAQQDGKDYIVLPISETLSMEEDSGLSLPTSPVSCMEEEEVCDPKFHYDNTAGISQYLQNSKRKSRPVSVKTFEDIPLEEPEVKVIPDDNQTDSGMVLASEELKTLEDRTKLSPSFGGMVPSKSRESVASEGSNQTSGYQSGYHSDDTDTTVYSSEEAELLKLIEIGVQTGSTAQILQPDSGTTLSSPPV
T4 sequence (P21802 22-821): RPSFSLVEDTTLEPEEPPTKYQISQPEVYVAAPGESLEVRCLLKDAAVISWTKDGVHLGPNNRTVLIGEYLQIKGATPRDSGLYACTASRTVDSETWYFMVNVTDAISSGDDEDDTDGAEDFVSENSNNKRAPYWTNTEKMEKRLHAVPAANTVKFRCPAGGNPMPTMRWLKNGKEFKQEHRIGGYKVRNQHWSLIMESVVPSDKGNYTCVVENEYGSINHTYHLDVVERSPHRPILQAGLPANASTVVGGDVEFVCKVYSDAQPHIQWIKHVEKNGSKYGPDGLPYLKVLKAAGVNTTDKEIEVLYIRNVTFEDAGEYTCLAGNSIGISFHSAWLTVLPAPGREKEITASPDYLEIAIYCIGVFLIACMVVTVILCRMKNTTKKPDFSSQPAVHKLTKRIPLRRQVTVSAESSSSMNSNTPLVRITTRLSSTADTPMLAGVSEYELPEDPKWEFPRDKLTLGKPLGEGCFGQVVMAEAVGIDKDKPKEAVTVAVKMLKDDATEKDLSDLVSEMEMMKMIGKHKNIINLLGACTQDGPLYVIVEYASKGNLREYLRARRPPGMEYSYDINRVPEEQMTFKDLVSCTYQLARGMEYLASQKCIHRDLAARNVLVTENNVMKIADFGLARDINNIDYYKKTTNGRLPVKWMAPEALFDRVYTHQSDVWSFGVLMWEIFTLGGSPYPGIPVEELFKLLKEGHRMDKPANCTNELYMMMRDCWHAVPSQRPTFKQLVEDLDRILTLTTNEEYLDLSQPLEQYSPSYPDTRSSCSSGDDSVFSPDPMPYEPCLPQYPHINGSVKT
T3 sequence (P22607 23-806): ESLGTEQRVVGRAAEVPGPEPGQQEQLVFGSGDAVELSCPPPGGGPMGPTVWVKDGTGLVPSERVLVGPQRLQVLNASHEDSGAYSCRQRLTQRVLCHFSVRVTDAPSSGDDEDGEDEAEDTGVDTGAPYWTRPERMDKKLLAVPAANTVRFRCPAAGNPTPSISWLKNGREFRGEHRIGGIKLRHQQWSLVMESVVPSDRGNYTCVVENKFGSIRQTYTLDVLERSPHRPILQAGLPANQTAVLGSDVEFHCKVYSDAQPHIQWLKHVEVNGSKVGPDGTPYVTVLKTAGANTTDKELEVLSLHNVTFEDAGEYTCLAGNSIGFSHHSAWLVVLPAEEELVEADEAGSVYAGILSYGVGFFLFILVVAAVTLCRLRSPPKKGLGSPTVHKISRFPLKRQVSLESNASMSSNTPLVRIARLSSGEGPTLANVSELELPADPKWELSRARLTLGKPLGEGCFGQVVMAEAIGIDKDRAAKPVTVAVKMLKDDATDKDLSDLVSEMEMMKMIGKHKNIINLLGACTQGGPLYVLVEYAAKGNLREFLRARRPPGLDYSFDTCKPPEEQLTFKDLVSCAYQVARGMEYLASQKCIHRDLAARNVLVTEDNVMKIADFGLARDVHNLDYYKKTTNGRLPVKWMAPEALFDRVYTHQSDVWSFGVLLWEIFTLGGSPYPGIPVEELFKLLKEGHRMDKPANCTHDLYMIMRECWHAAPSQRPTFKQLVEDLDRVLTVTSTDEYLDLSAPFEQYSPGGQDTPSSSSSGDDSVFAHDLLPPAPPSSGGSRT
T5 sequence (P11362 22-822): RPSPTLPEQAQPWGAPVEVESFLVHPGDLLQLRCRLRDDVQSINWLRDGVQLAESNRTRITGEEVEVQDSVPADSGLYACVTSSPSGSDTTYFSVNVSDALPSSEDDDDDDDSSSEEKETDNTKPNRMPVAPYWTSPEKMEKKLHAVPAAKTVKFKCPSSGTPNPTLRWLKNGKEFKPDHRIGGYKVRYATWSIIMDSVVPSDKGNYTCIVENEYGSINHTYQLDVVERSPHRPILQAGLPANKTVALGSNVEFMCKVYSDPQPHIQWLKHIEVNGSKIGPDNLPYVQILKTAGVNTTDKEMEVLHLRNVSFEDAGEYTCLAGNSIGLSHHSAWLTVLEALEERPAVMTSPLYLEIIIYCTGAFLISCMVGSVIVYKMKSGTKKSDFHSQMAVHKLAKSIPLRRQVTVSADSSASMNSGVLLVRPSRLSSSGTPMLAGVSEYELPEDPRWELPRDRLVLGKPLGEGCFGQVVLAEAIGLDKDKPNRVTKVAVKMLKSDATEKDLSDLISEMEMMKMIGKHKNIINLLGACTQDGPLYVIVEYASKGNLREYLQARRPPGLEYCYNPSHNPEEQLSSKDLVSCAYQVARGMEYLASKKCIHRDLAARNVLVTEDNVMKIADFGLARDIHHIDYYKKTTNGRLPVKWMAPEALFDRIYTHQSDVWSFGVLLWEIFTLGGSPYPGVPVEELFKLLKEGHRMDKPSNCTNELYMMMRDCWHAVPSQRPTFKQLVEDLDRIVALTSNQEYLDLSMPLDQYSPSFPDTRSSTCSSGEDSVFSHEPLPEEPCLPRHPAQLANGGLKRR

As usually defined, the melting point is the temperature, or range, at which the solid turns liquid. In turn, `CNCCN(c1cc(OC)cc(OC)c1)c1ccc2ncn(C3CCNCC3)c(=O)c2c1` [Compound 59] gave a melting point of 139 °C. Moreover, the Kd at FGFR4 was greater than 3.16e-06 M. Moreover, the Kd at VEGFR2 was greater than 3.16e-06 M. In addition, the Kd at FGFR3 was greater than 3.16e-06 M. Further, the Kd on FGFR2 was greater than 3.16e-06 M.
For `COc1cc(OC)cc(N(CCO)c2ccc3ncn(C4CCOCC4)c(=O)c3c2)c1` [Compound 64], the melting point came to 204 °C. Moreover, on FGFR4, the Kd was greater than 3.16e-06 M. On FGFR1, this compound had a Kd of 6.31e-07 M. The Kd on VEGFR2 is greater than 3.16e-06 M. The Kd on FGFR2 is 3.98e-07 M.
Compound `COc1cc(OC)c(F)c(N(CCO)c2ccc3ncn(C4CCNCC4)c(=O)c3c2)c1` [Compound 48] displayed a melting point of 173 °C. Besides, on FGFR4, the Kd is greater than 3.16e-06 M. Moreover, on FGFR1, the Kd is 1.26e-06 M. Further, the Kd on VEGFR2 was greater than 3.16e-06 M. Also, the Kd at FGFR3 was 7.94e-07 M. In addition, the Kd at FGFR2 is 6.31e-07 M.
`COc1cc(OC)c(F)c(N(CCCNC(C)C)c2ccc3ncn(C4CCNCC4)c(=O)c3c2)c1F` [Compound 60]: the melting point is 126 °C. Also, the Kd on FGFR4 is 3.98e-08 M. Moreover, the Kd at FGFR1 is 6.31e-09 M. The Kd at FGFR3 is 1.26e-08 M. Further, on FGFR2, the Kd is 5.01e-09 M.
Take `COc1cc(OC)cc(N(CCCNC(C)C)c2ccc3ncn(C4CCOCC4)c(=O)c3c2)c1` [Compound 73′]: the Kd is 1.26e-06 M on FGFR4, 1.26e-07 M on FGFR1, 2e-07 M on FGFR3 and 6.31e-08 M on FGFR2.
`COc1cc(OC)c(F)c(N(CCO)c2ccc3ncn(-c4cccnc4)c(=O)c3c2)c1F` [Compound 29] yielded a melting point of 112 °C. In addition, the Kd on FGFR4 is 5.01e-08 M. At FGFR1, this compound gave a Kd of 1.58e-08 M. Also, on VEGFR2, the Kd was 6.31e-07 M. At FGFR3, the Kd was 6.31e-09 M. Moreover, at FGFR2, the Kd was 3.16e-09 M.
On to `COc1cc(OC)c(F)c(N(Cc2nccn2S(=O)(=O)N(C)C)c2ccc3ncn(C4CCN(C(=O)OC(C)(C)C)CC4)c(=O)c3c2)c1F`, for which the melting point amounted to 168 °C.
With `COc1cc(OC)cc(N(Cc2ncc[nH]2)c2ccc3ncn(C4CCOCC4)c(=O)c3c2)c1` [Compound 69], the melting point amounted to 260 °C. Besides, the Kd at FGFR1 is 1.58e-07 M. For the same compound, at VEGFR2, the Kd was greater than 3.16e-06 M. Also, the Kd at FGFR3 is 1.58e-07 M. The Kd at FGFR2 was 5.01e-08 M.
`COc1cc(OC)c(F)c(N(CCCNC(C)C)c2ccc3ncn(C4CCNCC4)c(=O)c3c2)c1` came in with a melting point of 140 °C.
As to `COc1cc(OC)c(F)c(N(CCO)c2ccc3ncn(C4CCNCC4)c(=O)c3c2)c1F` [Compound 46], the melting point was found to be 186 °C. Besides, the Kd on FGFR4 is 7.94e-07 M. The same compound gave a Kd at FGFR1 of 1e-07 M. In addition, the Kd at VEGFR2 is greater than 3.16e-06 M. Also, on FGFR3, the Kd was 1e-07 M. Also, the Kd at FGFR2 is 3.98e-08 M.
Turning to `COc1cc(OC)c(F)c(N(Cc2ncc[nH]2)c2ccc3ncn(C4CCNCC4)c(=O)c3c2)c1` [Compound 45], the melting point was 260 °C. Besides, the Kd on FGFR4 was 5.01e-07 M. Further, on FGFR1, the Kd was 7.94e-08 M. Further, the Kd at VEGFR2 was greater than 3.16e-06 M. Further, the Kd on FGFR3 was 7.94e-08 M. The Kd on FGFR2 is 3.16e-08 M.
`COc1cc(OC)c(F)c(N(Cc2ncc[nH]2)c2ccc3ncn(C4CCOCC4)c(=O)c3c2)c1` [Compound 75] registered a melting point greater than 260 °C. For the same compound, at FGFR4, the Kd is 2e-07 M. The Kd at FGFR1 is 3.98e-08 M. Moreover, on VEGFR2, the Kd is greater than 3.16e-06 M. In addition, the Kd at FGFR3 was 1.58e-08 M. The Kd on FGFR2 was 1e-08 M.
`COc1cc(OC)c(F)c(N(Cc2nccn2S(=O)(=O)N(C)C)c2ccc3ncn(-c4ccncc4)c(=O)c3c2)c1F` [Compound 40] had a melting point of 139 °C. In addition, the Kd on FGFR4 is 2.51e-07 M. Further, the Kd at FGFR1 was 3.98e-08 M. Also, the Kd on VEGFR2 is 1.58e-06 M. The Kd on FGFR3 is 6.31e-08 M. Further, the Kd at FGFR2 was 3.16e-08 M.
Turning to `COc1cc(OC)cc(N(CCCO)c2ccc3ncn(C4CCOCC4)c(=O)c3c2)c1` [Compound 66], the Kd on FGFR4 was greater than 3.16e-06 M; on FGFR1 it was 1.26e-06 M; on VEGFR2, greater than 3.16e-06 M; at FGFR3, 1.26e-06 M; at FGFR2 it was 5.01e-07 M.
`COc1cc(OC)c(F)c(N(CCO)c2ccc3ncn(-c4cncnc4)c(=O)c3c2)c1F` [Compound 76] showed a melting point of 178 °C. Further, the Kd on FGFR4 was 2e-07 M. The same compound showed a Kd at FGFR1 of 6.31e-08 M. Further, the Kd at VEGFR2 is greater than 3.16e-06 M. Besides, the Kd on FGFR3 was 3.16e-08 M. Further, the Kd on FGFR2 was 1.58e-08 M.
For the compound `COc1cc(OC)c(F)c(N(CCCNC(C)C)c2ccc3ncn(C4CCOCC4)c(=O)c3c2)c1` [Compound 72], the Kd was 5.01e-08 M on FGFR4; 7.94e-09 M at FGFR1; 2.51e-06 M at VEGFR2; 1.58e-08 M at FGFR3; 1e-08 M on FGFR2.
Compound `COc1cc(OC)cc(N(CCCNC(C)C)c2ccc3ncn(C4CCNCC4)c(=O)c3c2)c1` displayed a melting point of 255 °C.
`COc1cc(OC)cc(N(CCO)c2ccc3ncn(C4CCNCC4)c(=O)c3c2)c1` [Compound 47]: the melting point was found to be 165 °C. Moreover, the Kd at FGFR4 was greater than 3.16e-06 M. Further, the Kd at FGFR1 was greater than 3.16e-06 M. In addition, the Kd at VEGFR2 is greater than 3.16e-06 M. In addition, the Kd on FGFR3 is greater than 3.16e-06 M. The Kd on FGFR2 is greater than 3.16e-06 M.
For the compound `COc1cc(OC)cc(N(CCO)c2ccc3ncn(-c4cccnc4)c(=O)c3c2)c1` [Compound 31], the melting point amounted to 168 °C. At FGFR4, the Kd is greater than 3.16e-06 M. The Kd at VEGFR2 is greater than 3.16e-06 M. Further, on FGFR2, the Kd is 5.01e-07 M.
As for `COc1cc(OC)c(F)c(N(Cc2nccn2S(=O)(=O)N(C)C)c2ccc3ncn(-c4ccncc4)c(=O)c3c2)c1` [Compound 41], the Kd was 7.94e-07 M at FGFR4; 1e-07 M on FGFR1; greater than 3.16e-06 M at VEGFR2; 1.26e-07 M on FGFR3; 3.16e-08 M at FGFR2.
Turning to `COc1cc(OC)c(F)c(N(CCO)c2ccc3ncn(-c4ccncc4)c(=O)c3c2)c1F` [Compound 37], the melting point came to 198 °C. Moreover, the Kd at FGFR4 was 5.01e-08 M. On FGFR1, this compound showed a Kd of 1.58e-08 M. Further, the Kd at FGFR3 is 5.01e-09 M. Besides, the Kd on FGFR2 is 2.51e-09 M.
`CNCCN(c1ccc2ncn(C3CCNCC3)c(=O)c2c1)c1c(F)c(OC)cc(OC)c1F` [Compound 57]: the Kd is 1.58e-07 M on FGFR4; 3.16e-08 M at FGFR1; 2e-06 M on VEGFR2; 6.31e-08 M at FGFR3; 3.98e-08 M at FGFR2.
On the same counts, the results for `COc1cc(OC)c(F)c(N(CCCNC(C)C)c2ccc3ncn(C4CCNCC4)c(=O)c3c2)c1` [Compound 61′] are 2e-07 M, 5.01e-08 M, greater than 3.16e-06 M, 6.31e-08 M and 2e-08 M.
As to `COc1cc(OC)cc(N(Cc2nccn2S(=O)(=O)N(C)C)c2ccc3ncn(C4CCOCC4)c(=O)c3c2)c1` [Compound 68], the Kd was greater than 3.16e-06 M at FGFR4, 1.26e-06 M at FGFR1, greater than 3.16e-06 M on VEGFR2 and greater than 3.16e-06 M on FGFR3.
`COc1cc(OC)c(F)c(N(CCCO)c2ccc3ncn(C4CCOCC4)c(=O)c3c2)c1` [Compound 65] registered a melting point of 164 °C. Also, the Kd on FGFR1 was 2e-07 M. At VEGFR2, the Kd is greater than 3.16e-06 M. The Kd on FGFR3 was 7.94e-08 M. Besides, the Kd on FGFR2 is 5.01e-08 M.
